Measurements reported in PubChem BioAssay AID248 (DTP/NCI, 2004).
Where “and” joins values, the source holds several entries; their conditions need not be identical. Identical values can stand only once. Toxic doses and inconclusive results are not listed. No stated cut-off is given here; in the data, active means T/C of 150% or more; inactive means T/C below 125%.

Tested on: L1210 leukemia ip in BDF1 mice, survival T/C
Test: NCI In Vivo Anticancer Drug Screen. Data for tumor model L1210 Leukemia (intraperitoneal) in B6D2F1 (BDF1) mice
Conditions: endpoint: mean survival time, higher = longer survival
Summary of the method: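 Antitumor effect is assessed in tumor-bearing animals. Survival in the compound arm is compared with a vehicle-dosed control arm and expressed as their quotient.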

[1] = dose: 25.0 mg/kg/injection, schedule: Q04DX003 (ip), vehicle: saline
[2] = dose: 100.0 mg/kg/injection, schedule: Q01DX001 (ip), vehicle: saline
[3] = dose: 200.0 mg/kg/injection, schedule: Q01DX001 (ip), vehicle: saline
[4] = dose: 400.0 mg/kg/injection, schedule: Q01DX001 (ip), vehicle: saline
[5] = dose: 100.0 mg/kg/injection, schedule: Q04DX003 (ip), vehicle: Klucel (hydroxypropylcellulose) (HPC)
[6] = dose: 200.0 mg/kg/injection, schedule: Q04DX003 (ip), vehicle: Klucel (hydroxypropylcellulose) (HPC)
[7] = dose: 400.0 mg/kg/injection, schedule: Q04DX003 (ip), vehicle: Klucel (hydroxypropylcellulose) (HPC)
[8] = dose: 100.0 mg/kg/injection, schedule: Q01DX009 (ip), vehicle: saline with Tween-80
[9] = dose: 100.0 mg/kg/injection, schedule: Q04DX003 (ip), vehicle: other
[10] = dose: 200.0 mg/kg/injection, schedule: Q01DX009 (ip), vehicle: saline with Tween-80
[11] = dose: 200.0 mg/kg/injection, schedule: Q04DX003 (ip), vehicle: other
[12] = dose: 400.0 mg/kg/injection, schedule: Q01DX009 (ip), vehicle: saline with Tween-80
[13] = dose: 400.0 mg/kg/injection, schedule: Q04DX003 (ip), vehicle: other
[14] = dose: 100.0 mg/kg/injection, schedule: Q04DX003 (ip), vehicle: saline with Tween-80
[15] = dose: 200.0 mg/kg/injection, schedule: Q04DX003 (ip), vehicle: saline with Tween-80
[16] = dose: 400.0 mg/kg/injection, schedule: Q04DX003 (ip), vehicle: saline with Tween-80
[17] = dose: 100.0 mg/kg/injection, schedule: Q01DX009 (ip), vehicle: Klucel (hydroxypropylcellulose) (HPC)
[18] = dose: 200.0 mg/kg/injection, schedule: Q01DX009 (ip), vehicle: Klucel (hydroxypropylcellulose) (HPC)

Measured: T/C

S=C(NCc1ccccc1)Nc1ncn[nH]1
inactive: dose: 25.0 mg/kg/injection, schedule: Q01DX009 (ip), vehicle: saline 100 % of control | [1] 92 % of control | dose: 50.0 mg/kg/injection, schedule: Q01DX009 (ip), vehicle: saline 94 % of control | dose: 50.0 mg/kg/injection, schedule: Q04DX003 (ip), vehicle: saline 92 % of control | dose: 100.0 mg/kg/injection, schedule: Q01DX009 (ip), vehicle: saline 90 % of control | dose: 100.0 mg/kg/injection, schedule: Q04DX003 (ip), vehicle: saline 92 % of control

COC(=O)C1(C)COP(=O)(NC2CCCCC2)OC1 (stereo not given)
inactive: [2] 94 % of control | [3] 97 % of control | [4] 108 % of control

CCC1(O)C(=O)OCc2c1cc(-c1ccccc1)n(C)c2=O (stereo not given)
inactive: dose: 25.0 mg/kg/injection, schedule: Q01DX001 (ip), vehicle: other 101 % of control | dose: 50.0 mg/kg/injection, schedule: Q01DX001 (ip), vehicle: other 113 % of control | dose: 100.0 mg/kg/injection, schedule: Q01DX001 (ip), vehicle: other 101 % of control | dose: 200.0 mg/kg/injection, schedule: Q01DX001 (ip), vehicle: other 98 % of control

O=C(/C=C(/CC(=O)c1ccccc1)C(=O)c1ccccc1)c1ccccc1
inactive: [5] 103 % of control | [6] 95 % of control | [7] 101 % of control

Cc1ccc(S(=O)(=O)NN=C2CCC(C(C)(C)C)CC2)cc1 (stereo not given)
inactive: [8] 88 % of control | [9] 91 % of control | [10] 88 % of control | [11] 89 % of control | [12] 91 % of control | [13] 96 % of control

CC(=O)N1CSCC1C(=O)O (stereo not given)
inactive: [5] 89 % of control | [6] 94 % of control | [7] 91 % of control

Clc1ccc(CSc2ncnc3nc[nH]c23)cc1Cl
inactive: [14] 93 % of control | [15] 94 % of control | [16] 104 % of control

O=C(OC1C=CCC=C1)c1cc([N+](=O)[O-])cc([N+](=O)[O-])c1
inactive: [9] 101 % of control | [11] 101 % of control | [13] 94 % of control

N#Cc1cn(C2OC(CO)C(O)C2O)c2ncn(O)c(=N)c12 (stereo not given)
inactive: dose: 0.19 mg/kg/injection, schedule: Q01DX005 (ip), vehicle: saline 112 % of control | dose: 0.19 mg/kg/injection, schedule: Q01DX009 (ip), vehicle: saline 107 % of control | dose: 0.39 mg/kg/injection, schedule: Q01DX005 (ip), vehicle: saline 96 % of control | dose: 0.39 mg/kg/injection, schedule: Q01DX009 (ip), vehicle: saline 97 % of control | dose: 0.78 mg/kg/injection, schedule: Q01DX005 (ip), vehicle: saline 100 % of control | dose: 0.78 mg/kg/injection, schedule: Q01DX009 (ip), vehicle: saline 100 % of control | dose: 1.56 mg/kg/injection, schedule: Q01DX005 (ip), vehicle: saline 94 % of control

Cc1ccc2c([nH]1)c(C)cc1nc3ccccc3c12
inactive: dose: 50.0 mg/kg/injection, schedule: Q01DX001 (ip), vehicle: carboxymethylcellulose (CMC) 103 % of control | dose: 50.0 mg/kg/injection, schedule: Q01DX001 (ip), vehicle: saline 95 % of control | [2] 101 % of control | dose: 200.0 mg/kg/injection, schedule: Q01DX001 (ip), vehicle: carboxymethylcellulose (CMC) 95 % of control | [3] 110 % of control | dose: 400.0 mg/kg/injection, schedule: Q01DX001 (ip), vehicle: carboxymethylcellulose (CMC) 104 % of control | [4] 101 % of control

C=CCOCCN1CCN(CCCN2c3ccccc3Sc3ccc(C(F)(F)F)cc32)CC1
inactive: dose: 0.23 mg/kg/injection, schedule: Q01DX009 (ip), vehicle: saline 93 % of control | dose: 0.35 mg/kg/injection, schedule: Q01DX009 (ip), vehicle: saline 86 % of control | dose: 0.54 mg/kg/injection, schedule: Q01DX009 (ip), vehicle: saline 98 % of control | dose: 1.09 mg/kg/injection, schedule: Q01DX009 (ip), vehicle: saline 111 % of control | dose: 2.18 mg/kg/injection, schedule: Q01DX009 (ip), vehicle: saline 86 % of control | dose: 6.25 mg/kg/injection, schedule: Q04DX003 (ip), vehicle: saline 101 % of control | dose: 12.5 mg/kg/injection, schedule: Q04DX003 (ip), vehicle: saline 110 % of control | dose: 16.0 mg/kg/injection, schedule: Q01DX003 (ip), vehicle: saline 117 % of control | dose: 17.0 mg/kg/injection, schedule: Q04DX003 (ip), vehicle: saline 101 % of control | dose: 25.0 mg/kg/injection, schedule: Q01DX003 (ip), vehicle: saline 108 % of control | [1] 106 % of control

O=P(CCO)(c1ccccc1)c1ccccc1
inactive: [14] 112 % of control | [15] 101 % of control

CC1(C)C(=NNC(N)=O)C(C)(C)C1=NNC(N)=O
inactive: [2] 96 % of control | [5] 91 % of control | [3] 94 % of control | [4] 90 % of control

C/C(CC(C)(C)c1ccccc1)=N/NC(N)=O
inactive: [17] 104 % of control | [18] 98 % of control

COc1ccccc1NC(=S)Nc1ccccc1OC
inactive: [17] 102 % of control | dose: 100.0 mg/kg/injection, schedule: Q01DX009 (ip), vehicle: saline sonified 97 % of control | [8] 90 % of control | [5] 93 % of control | dose: 100.0 mg/kg/injection, schedule: Q04DX003 (ip), vehicle: saline sonified 110 % of control | [14] 92 % of control | [18] 94 % of control | dose: 200.0 mg/kg/injection, schedule: Q01DX009 (ip), vehicle: saline sonified 97 % of control | [10] 101 % of control | [6] 98 % of control | dose: 200.0 mg/kg/injection, schedule: Q04DX003 (ip), vehicle: saline sonified 95 % of control | [15] 96 % of control | dose: 400.0 mg/kg/injection, schedule: Q01DX009 (ip), vehicle: saline sonified 86 % of control | [12] 93 % of control | [7] 96 % of control | dose: 400.0 mg/kg/injection, schedule: Q04DX003 (ip), vehicle: saline sonified 116 % of control | [16] 92 % of control

N#CS/C=C\C(=O)O
inactive: dose: 3.12 mg/kg/injection, schedule: Q01DX001 (ip), vehicle: saline with Tween-80 95 % of control and 101 % of control | dose: 3.12 mg/kg/injection, schedule: Q01DX009 (ip), vehicle: saline with Tween-80 93 % of control | dose: 3.12 mg/kg/injection, schedule: Q04DX003 (ip), vehicle: saline with Tween-80 107 % of control | dose: 6.25 mg/kg/injection, schedule: Q01DX001 (ip), vehicle: saline with Tween-80 95 % of control and 101 % of control | dose: 6.25 mg/kg/injection, schedule: Q01DX009 (ip), vehicle: saline with Tween-80 98 % of control and 102 % of control | dose: 6.25 mg/kg/injection, schedule: Q04DX003 (ip), vehicle: saline with Tween-80 96 % of control and 100 % of control | dose: 12.5 mg/kg/injection, schedule: Q01DX001 (ip), vehicle: saline with Tween-80 94 % of control and 103 % of control and 105 % of control | dose: 12.5 mg/kg/injection, schedule: Q01DX009 (ip), vehicle: saline with Tween-80 95 % of control and 102 % of control | dose: 12.5 mg/kg/injection, schedule: Q04DX003 (ip), vehicle: saline with Tween-80 102 % of control and 103 % of control | dose: 25.0 mg/kg/injection, schedule: Q01DX001 (ip), vehicle: saline with Tween-80 94 % of control and 103 % of control | dose: 25.0 mg/kg/injection, schedule: Q01DX009 (ip), vehicle: saline with Tween-80 100 % of control and 92 % of control | dose: 25.0 mg/kg/injection, schedule: Q04DX003 (ip), vehicle: saline with Tween-80 93 % of control and 98 % of control | dose: 50.0 mg/kg/injection, schedule: Q01DX001 (ip), vehicle: saline with Tween-80 100 % of control | dose: 50.0 mg/kg/injection, schedule: Q04DX003 (ip), vehicle: saline with Tween-80 97 % of control
